Experimental data from the RepoRT retention time repository (doi:10.1021/acs.analchem.1c00972).
Structures can show the parent of a compound that is named as a salt.

What was measured:
Conditions in all cases: stereoisomer not certain
[1] = RP, Waters ACQUITY UPLC BEH C18, 100 × 1 mm, 1.7 µm, 50 °C, 0.3 mL/min, estimated dead time 0.17 min; A: water + 10 mM ammonium bicarbonate; B: 10% water + 90% methanol + 10 mM ammonium bicarbonate; gradient (min/%B) 0/0 15/100 21/100 22/0 30/0
[2] = RP, Waters ACQUITY UPLC BEH C18, 100 × 1 mm, 1.7 µm, 50 °C, 0.3 mL/min, estimated dead time 0.17 min; A: water + 0.1% formic acid + 20 mM ammonium formate; B: methanol + 0.1% formic acid + 20 mM ammonium formate; gradient (min/%B) 0/0 15/100 21/100 22/0 30/0
[3] = RP, Phenomenex Synergi Polar-RP, 100 × 3 mm, 2.5 µm, 40 °C, 0.4 mL/min, estimated dead time 1.1 min; A: water + 1 mM ammonium fluoride; B: methanol + 1 mM ammonium fluoride; C: acetonitrile; D: 50% isopropanol + 50% acetone; gradient (min/%B/%C/%D) 0/5/0/0 2/5/0/0 8/95/0/0 12/80/15/0 19/25/70/0 19.5/0/25/70 21.5/0/25/70 22.5/0/25/0 23/5/0/0

## Oc1cccc2ccccc12 [1-Naphthol]
[1]
  LC retention time: 12.7 min
[2]
  LC retention time: 12.5 min
[3]
  LC retention time: 10 min

## O=S(=O)(O)c1ccc2ccccc2c1 [2-Naphthalene sulfonic acid]
[1]
  LC retention time: 8.6 min
[2]
  LC retention time: 8.66 min
[3]
  LC retention time: 7.25 min

## Oc1ccccc1-c1ccccc1 [2-Phenylphenol]
[1]
  LC retention time: 13.9 min
[3]
  LC retention time: 9.93 min

## O=c1[nH]c2ccccc2s1 [2-hydroxybenzothiazole]
[1]
  LC retention time: 10.5 min
[2]
  LC retention time: 10.6 min
[3]
  LC retention time: 9.61 min

## Oc1ccc(Cl)cc1 [4-Chlorophenol]
[1]
  LC retention time: 11.3 min
[3]
  LC retention time: 8.39 min

## CC(C)(c1ccccc1)c1ccc(O)cc1 [4-Cumylphenol]
[1]
  LC retention time: 15.7 min
[3]
  LC retention time: 11.1 min

## O=C(O)CCC(=O)c1ccc(F)cc1 [4-Fluorobenzoylpropionic acid]
[1]
  LC retention time: 7.83 min
[2]
  LC retention time: 10.5 min
[3]
  LC retention time: 8.54 min

## O=[N+]([O-])c1ccc(O)cc1 [4-Nitrophenol]
[1]
  LC retention time: 3.3 min
[2]
  LC retention time: 9.08 min
[3]
  LC retention time: 9.25 min

## CCCCCCCCCc1ccc(O)cc1 [4-n-Nonylphenol]
[1]
  LC retention time: 18.1 min
[3]
  LC retention time: 11.6 min

## O=c1[nH]cc(F)c(=O)[nH]1 [5-Fluorouracil]
[2]
  LC retention time: 7.72 min
[3]
  LC retention time: 2.09 min

## CCCc1cc(=O)[nH]c(=S)[nH]1 [6-Propyl-2-thiouracil]
[2]
  LC retention time: 7.69 min
[3]
  LC retention time: 8.14 min

## CC1=CC(=O)NS(=O)(=O)O1 [Acesulfame]
[1]
  LC retention time: 2.41 min
[2]
  LC retention time: 2.66 min
[3]
  LC retention time: 2.11 min

## CC(C)N1C(=O)c2ccccc2NS1(=O)=O [Bentazone]
[1]
  LC retention time: 7.66 min
[2]
  LC retention time: 11.5 min
[3]
  LC retention time: 7.2 min

## O=S(=O)(O)c1ccccc1 [Benzenesulfonic acid]
[1]
  LC retention time: 2.77 min
[2]
  LC retention time: 2.96 min
[3]
  LC retention time: 2.01 min

## O=C(O)c1cc(Oc2ccc(Cl)cc2Cl)ccc1[N+](=O)[O-] [Bifenox free acid]
[1]
  LC retention time: 13.2 min
[2]
  LC retention time: 14.3 min
[3]
  LC retention time: 9.15 min

## CC(C)(c1ccc(O)cc1)c1ccc(O)cc1 [Bisphenol A]
[2]
  LC retention time: 18.3 min
[3]
  LC retention time: 10.3 min

## Oc1ccc(Cc2ccc(O)cc2)cc1 [Bisphenol F]
[1]
  LC retention time: 11.9 min
[3]
  LC retention time: 9.94 min

## Oc1c(Br)cc(Cl)cc1Cc1cc(Cl)cc(Br)c1O [Bromochlorophen]
[1]
  LC retention time: 16.4 min
[2]
  LC retention time: 17.3 min
[3]
  LC retention time: 11.2 min

## CCCCOC(=O)c1ccc(O)cc1 [Butylparaben]
[1]
  LC retention time: 14 min
[3]
  LC retention time: 10.6 min

## Oc1ccc(Cl)cc1Cc1ccccc1 [Chlorophene]
[1]
  LC retention time: 15.9 min
[3]
  LC retention time: 11.2 min

## N#Cc1c(O)c(Cl)c(Cl)c(C#N)c1Cl [Chlorothalonil-4-hydroxy]
[1]
  LC retention time: 11.8 min
[2]
  LC retention time: 12.3 min
[3]
  LC retention time: 9.06 min

## O=S(=O)(O)NC1CCCCC1 [Cyclamate]
[1]
  LC retention time: 6.33 min
[2]
  LC retention time: 6.54 min
[3]
  LC retention time: 2.74 min

## CCCCCCCCCCOS(=O)(=O)O [Decyl sulfate]
[1]
  LC retention time: 15.1 min
[2]
  LC retention time: 14.8 min
[3]
  LC retention time: 9.26 min

## Oc1ccc(Cl)cc1Cc1cc(Cl)ccc1O [Dichlorophen]
[1]
  LC retention time: 15.1 min
[2]
  LC retention time: 15.2 min
[3]
  LC retention time: 10.9 min

## CC(Oc1ccc(Cl)cc1Cl)C(=O)O (stereo unspecified) [Dichlorprop]
[1]
  LC retention time: 11.8 min
[2]
  LC retention time: 14 min
[3]
  LC retention time: 8.48 min

## CCC(C)c1cc([N+](=O)[O-])cc([N+](=O)[O-])c1O (stereo unspecified) [Dinoseb]
[1]
  LC retention time: 12.4 min
[2]
  LC retention time: 15.5 min
[3]
  LC retention time: 10 min

## CCCCCCCCCCCCOS(=O)(=O)O [Dodecyl sulfate]
[1]
  LC retention time: 16.4 min
[2]
  LC retention time: 16.2 min
[3]
  LC retention time: 9.67 min

## CCCCCCCCCCCCc1ccccc1S(=O)(=O)O [Dodecylbenzenesulfonic acid]
[1]
  LC retention time: 17.5 min
[2]
  LC retention time: 17.2 min
[3]
  LC retention time: 10.1 min

## CC(C)Cc1ccc(C(C)C(=O)O)cc1 (stereo unspecified) [Ibuprofen]
[2]
  LC retention time: 14.1 min
[3]
  LC retention time: 10.3 min

## COc1ccc2c(c1)c(CC(=O)O)c(C)n2C(=O)c1ccc(Cl)cc1 [Indometacin]
[2]
  LC retention time: 15.4 min
[3]
  LC retention time: 10.5 min

## Cc1cc(Cl)ccc1OC(C)C(=O)O (stereo unspecified) [Mecoprop]
[3]
  LC retention time: 8.57 min

## Cc1cccc(Nc2ccccc2C(=O)O)c1C [Mefenamic acid]
[3]
  LC retention time: 10.6 min

## Cc1cccc(C)c1N(Cn1cccn1)C(=O)CS(=O)(=O)O [Metazachlor ESA]
[3]
  LC retention time: 7.83 min

## CCc1cccc(C)c1N(C(=O)CS(=O)(=O)O)C(C)COC (stereo unspecified) [Metolachlor ESA]
[1]
  LC retention time: 12.1 min
[3]
  LC retention time: 8.57 min

## CCc1cccc(C)c1N(C(=O)C(=O)O)C(C)COC (stereo unspecified) [Metolachlor OA]
[3]
  LC retention time: 8.42 min

## CC(C)(O)c1ccccc1CCC(SCC1(CC(=O)O)CC1)c1cccc(C=Cc2ccc3ccc(Cl)cc3n2)c1 (stereo unspecified) [Montelukast]
[1]
  LC retention time: 16.6 min
[3]
  LC retention time: 11.9 min

## COc1c(C)c2c(c(O)c1CC=C(C)CCC(=O)O)C(=O)OC2 [Mycophenolic acid]
[3]
  LC retention time: 10.3 min

## CCOC(=O)C1=C(C)NC(C)=C(C(=O)OC)C1c1cccc([N+](=O)[O-])c1 (stereo unspecified) [Nitrendipin]
[3]
  LC retention time: 11.2 min

## O=C1CN(N=Cc2ccc([N+](=O)[O-])o2)C(=O)N1 [Nitrofurantoin]
[3]
  LC retention time: 8.69 min

## CCCN(CCC)c1c([N+](=O)[O-])cc(S(N)(=O)=O)cc1[N+](=O)[O-] [Oryzalin]
[3]
  LC retention time: 11.2 min

## O=c1[nH]c(=O)c2cn[nH]c2[nH]1 [Oxypurinol]
[3]
  LC retention time: 2.44 min

## O=S(=O)(O)C(F)(F)C(F)(F)C(F)(F)C(F)(F)C(F)(F)C(F)(F)C(F)(F)C(F)(F)F [Perfluorooctanesulfonic acid]
[1]
  LC retention time: 15.5 min
[3]
  LC retention time: 9.25 min

## O=S(=O)(O)c1ccc2nc(-c3ccccc3)[nH]c2c1 [Phenylbenzimidazole sulfonic acid]
[3]
  LC retention time: 7.44 min

## NC(=O)c1ccccc1C(=O)O [Phthalamic acid]
[3]
  LC retention time: 2.24 min

## CCC(=O)Nc1ccc(Cl)c(Cl)c1 [Propanil]
[3]
  LC retention time: 10.6 min

## O=C(c1ccc(OCCN2CCCCC2)cc1)c1c(-c2ccc(O)cc2)sc2cc(O)ccc12 [Raloxifene]
[3]
  LC retention time: 16.2 min

## OCC1OC(OC2(CCl)OC(CCl)C(O)C2O)C(O)C(O)C1Cl (stereo unspecified) [Sucralose]
[3]
  LC retention time: 8 min

## CS(=O)(=O)c1ccc(C(=O)C2C(=O)CCCC2=O)c(Cl)c1 [Sulcotrione]
[3]
  LC retention time: 7.69 min

## Cc1ccc(C(C)C)c(O)c1 [Thymol]
[1]
  LC retention time: 14.7 min
[3]
  LC retention time: 10.6 min

## O=C(Nc1ccc(Cl)cc1)Nc1ccc(Cl)c(Cl)c1 [Triclocarban]
[3]
  LC retention time: 11.3 min

## Oc1cc(Cl)ccc1Oc1ccc(Cl)cc1Cl [Triclosan]
[3]
  LC retention time: 11.5 min

## CCCCC(=O)N(Cc1ccc(-c2ccccc2-c2nn[nH]n2)cc1)C(C(=O)O)C(C)C (stereo unspecified) [Valsartan]
[3]
  LC retention time: 9.29 min

## Cc1cc(O)ccc1Cl [p-Chlorocresol]
[1]
  LC retention time: 13 min
[3]
  LC retention time: 8.57 min
